Data taken from patent US10442803B2, “Tricyclic heterocycles as bet protein inhibitors” (Incyte Corporation, priority 2013, dated 2019).
Structures can show the parent of a compound that is named as a salt.

system: KMS.12.BM cells; assay: KMS.12.BM cell viability assay; assay type: cell-based; conditions: 72 h; KMS.12.BM human myeloma cells, 3 days, Cell Titer-GLO ATP quantitation; read-out: KMS cellular IC50
Protocol: KMS.12.BM cell line (human myeloma) was purchased from JCRB (Osaka, Japan) and maintained in RPMI with 10% FBS culture medium. To measure the cytotoxic activity of the compounds through ATP quantitation, the KMS.12.BM cells are plated in the RPMI culture medium at 5000 cells/well/per 100 μL into a 96-well polystyrene clear black tissue culture plate (Greiner-bio-one through VWR, NJ), in the presence or absence of a concentration range of test compounds. After 3 days, […] Cell Titer-GLO Luminescent (Promega, Madison, Wis.) cell culture agent is added to each well for 10 minutes at room temperature to stabilize the luminescent signal. This determines the number of viable cells in culture based on quantitation of the ATP present, which signals the presence of metabolically active cells. Luminescence is measured with the Top Count 384 (Packard Bioscience through Perkin Elmer, Boston, Mass.).
IC50 data for the Examples is presented in Table 4 as determined by Assay B1.

Structure (SMILES)	IC50 [nM]
Cc1nnc2ccc3c(ccn3C(C)c3ccccc3)n12 (racemic) [Example 4, 1-methyl-6-(1-phenylethyl)-6H-pyrrolo[2,3-e][1,2,4]triazolo[4,3-a]pyridine]	1000 to 10000
CCCCC(c1ccccc1)n1c(C)cc2c1ccc1nnc(C)n12 (racemic) [Example 24, 1,7-dimethyl-6-(1-phenylpentyl)-6H-pyrrolo[2,3-e][1,2,4]triazolo[4,3-a]pyridine]	1000 to 10000
Cc1nnc2ccc3c(cc(-c4ccn(C(C)CC#N)n4)n3Cc3ccccc3)n12 (racemic) [Example 87, 3-[3-(6-benzyl-1-methyl-6H-pyrrolo[2,3-e][1,2,4]triazolo[4,3-a]pyridin-7-yl)-1H-pyrazol-1-yl]butanenitrile trifluoroacetate salt (racemate)]	≤ 1000
Cc1nnc2ccc3c(cc(-c4ccn(CC(C)C#N)n4)n3Cc3ccccc3)n12 (racemic) [Example 88, 3-[3-(6-benzyl-1-methyl-6H-pyrrolo[2,3-e][1,2,4]triazolo[4,3-a]pyridin-7-yl)-1H-pyrazol-1-yl]-2-methylpropanenitrile trifluoroacetate salt (racemate)]	≤ 1000
Cc1cc2c(cc(NC3CCCN(C)C3)c3nnc(C)n32)n1Cc1ccccc1 (racemic) [Example 144, 6-benzyl-1,7-dimethyl-N-(1-methylpiperidin-3-yl)-6H-pyrrolo[2,3-e][1,2,4]triazolo[4,3-a]pyridin-4-amine (racemic)]	1000 to 10000
Cc1cc2c(cc(NC3CCN(C)C3)c3nnc(C)n32)n1Cc1ccccc1 (racemic) [Example 145, 6-benzyl-1,7-dimethyl-N-(1-methylpyrrolidin-3-yl)-6H-pyrrolo[2,3-e][1,2,4]triazolo[4,3-a]pyridin-4-amine bis(trifluoroacetate) salt (racemic)]	≤ 1000
Cc1nnc2ccc3c(cc(-c4ncco4)n3Cc3cc(Cl)cc(CN4CCC(O)C4)c3)n12 (racemic) [Example 199, 1-(3-Chloro-5-{[1-methyl-7-(1,3-oxazol-2-yl)-6H-pyrrolo[2,3-e][1,2,4]triazolo[4,3-a]pyridin-6-yl]methyl}benzyl)pyrrolidin-3-ol bis(trifluoroacetate) salt (racemic)]	≤ 1000
Cc1cc2c(cc(N[C@H]3CCN(C)[C@H](C)C3)c3nnc(C)n32)n1Cc1ccccc1 (racemic) [Example 225, 6-Benzyl-N-[(2R,4S)-1,2-dimethylpiperidin-4-yl]-1,7-dimethyl-6H-pyrrolo[2,3-e][1,2,4]triazolo[4,3-a]pyridin-4-amine and 6-Benzyl-N-[(2S,4R)-1,2-dimethylpiperidin-4-yl]-1,7-dimethyl-6H-pyrrolo[2,3-e][1,2,4]triazolo[4,3-a]pyridin-4-amine]	≤ 1000
Cc1cc2c(cc(N[C@H]3CC[C@@H](C#N)CC3)c3nnc(C)n32)n1Cc1ccccc1 (single isomer, unassigned) [Example 215 b, 4-[(6-benzyl-1,7-dimethyl-6H-pyrrolo[2,3-e][1,2,4]triazolo[4,3-a]pyridin-4-yl)amino]cyclohexanecarbonitrile trifluoroacetate salt]	1000 to 10000
Cc1nnc2ccc3c(ccn3Cc3ccccc3)n12 [Example 1, 6-benzyl-1-methyl-6H-pyrrolo[2,3-e][1,2,4]triazolo[4,3-a]pyridine]	1000 to 10000
Cc1cc2c(ccc3nnc(C)n32)n1Cc1ccccc1 [Example 2, 6-benzyl-1,7-dimethyl-6H-pyrrolo[2,3-e][1,2,4]triazolo[4,3-a]pyridine]	≤ 1000
Cc1cc2c(ccc3nnc(C)n32)n1S(=O)(=O)c1ccccc1 [Example 2a, 1,7-dimethyl-6-(phenylsulfonyl)-6H-pyrrolo[2,3-e][1,2,4]triazolo[4,3-a]pyridine]	1000 to 10000
Cc1nnc2ccc3c(ccn3S(=O)(=O)c3ccccc3)n12 [Example 3, 1-methyl-6-(phenylsulfonyl)-6H-pyrrolo[2,3-e][1,2,4]triazolo[4,3-a]pyridine]	1000 to 10000
